From publication PMC9120017, “Inhibition mechanism of the chloride channel TMEM16A by the pore blocker 1PBC” (Nature Communications, 2022)
Where two headings read alike, the source gives them in different places.

Target: T1, mouse TMEM16A mutant S517A (Mus musculus, UniProt Q8BHY3, S517A)
T1 construct: expressed in transfected cells; host or cells: HEK293T
T1 sequence (Q8BHY3 1-960 S517A): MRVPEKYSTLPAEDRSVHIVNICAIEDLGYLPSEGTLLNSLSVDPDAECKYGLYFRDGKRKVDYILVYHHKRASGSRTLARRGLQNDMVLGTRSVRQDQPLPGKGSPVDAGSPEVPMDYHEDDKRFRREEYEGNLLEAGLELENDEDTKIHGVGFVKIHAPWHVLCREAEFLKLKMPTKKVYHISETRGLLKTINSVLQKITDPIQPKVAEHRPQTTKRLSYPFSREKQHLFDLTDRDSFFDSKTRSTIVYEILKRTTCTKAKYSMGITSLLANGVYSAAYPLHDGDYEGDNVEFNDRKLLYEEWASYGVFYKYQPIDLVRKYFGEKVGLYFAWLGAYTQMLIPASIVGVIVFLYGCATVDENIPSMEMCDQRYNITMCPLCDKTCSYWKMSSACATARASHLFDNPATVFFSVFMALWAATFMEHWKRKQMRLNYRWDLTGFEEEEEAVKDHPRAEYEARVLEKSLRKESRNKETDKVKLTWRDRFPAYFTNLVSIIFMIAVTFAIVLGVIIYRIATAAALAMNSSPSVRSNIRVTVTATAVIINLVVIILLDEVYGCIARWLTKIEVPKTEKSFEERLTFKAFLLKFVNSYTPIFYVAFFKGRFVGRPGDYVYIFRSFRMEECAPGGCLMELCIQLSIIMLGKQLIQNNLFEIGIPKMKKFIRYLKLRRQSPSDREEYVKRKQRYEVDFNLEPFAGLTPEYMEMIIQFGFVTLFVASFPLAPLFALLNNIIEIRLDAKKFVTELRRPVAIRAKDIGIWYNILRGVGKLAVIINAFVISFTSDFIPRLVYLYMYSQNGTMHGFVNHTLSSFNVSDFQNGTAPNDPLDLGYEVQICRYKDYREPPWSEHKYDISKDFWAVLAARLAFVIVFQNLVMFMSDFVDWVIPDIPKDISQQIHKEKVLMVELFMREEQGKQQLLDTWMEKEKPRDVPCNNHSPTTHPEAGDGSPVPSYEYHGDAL
Assay: Inside-out patch recording of 1PBC block, mutant S517A
Type: cell-based
Details: for remaining activity at 30 µM: 1PBC 30; for remaining activity at 30 µM / remaining activity at 100 µM: read-out: fraction of unblocked current; for remaining activity at 100 µM: 1PBC 100
Description: HEK293T cells (ATCC CRL-1573) were maintained in Dulbecco’s modified Eagle’s medium (DMEM; Sigma-Aldrich) supplemented with 10 U ml^−1 penicillin, 0.1 mg ml^−1 streptomycin (Sigma-Aldrich), 2 mM L-glutamine (Sigma-Aldrich), and 10% FBS (Sigma-Aldrich) in a humidified atmosphere containing 5% CO2 at 37 °C. HEK293S GnTI^− cells (ATCC CRL-3022) were maintained in HyClone HyCell TransFx-H medium (GE Healthcare) supplemented with 10 U ml^−1 penicillin, 0.1 mg ml^−1 streptomycin, 4 mM L-glutamine, 0.15% poloxamer 188 (Sigma-Aldrich), and 1% FBS in an atmosphere containing 5% CO2 at 185 rpm at 37 °C. The ac splice variant of mouse TMEM16A (UniProt ID: Q8BHY3), mouse TMEM16B (UniProt ID: Q8CFW1), or mouse TMEM16F (UniProt ID: Q6P9J9) bearing a 3C cleavage site, a Venus YFP, a Myc tag, and a Streptavidin-binding peptide (SBP) downstream of the open reading frame in a modified pcDNA3.1 vector (Invitrogen) were used as described previously[21],[31]. Mutations were introduced using a modified QuikChange method[58] and were verified by sequencing.
HEK293T cells were transfected with 3–4 μg DNA per 6 cm Petri dish using the calcium phosphate co-precipitation method and were used within 24–96 h after transfection. Recordings were performed on inside-out patches excised from HEK293T cells expressing the construct of interest. Patch pipettes were pulled from borosilicate glass capillaries (O.D. 1.5 mm, I.D. 0.86 mm, Sutter Instrument) and were fire-polished with a microforge (Narishige) before use. Pipette resistance was typically 3–8 MΩ when filled with the recording solutions detailed below. Seal resistance was typically 4 GΩ or higher. Voltage-clamp recordings were made using Axopatch 200B, Digidata 1550, and Clampex 10.7 (Molecular Devices). Analog signals were filtered with the in-built 4-pole Bessel filter at 10 kHz and were digitized at 20 kHz. Solution exchange was achieved using a gravity-fed system through a theta glass pipette mounted on an ultra-fast piezo-driven stepper (Siskiyou). […] All recordings were performed at 20 °C.
A symmetrical ionic condition was used throughout. Stock solution with Ca^2+-EGTA contained 150 mM NaCl, 5.99 mM Ca(OH)2, 5 mM EGTA, and 10 mM HEPES at pH 7.40. Stock solution with EGTA contained 150 mM NaCl, 5 mM EGTA, and 10 mM HEPES at pH 7.40. Free Ca^2+ concentrations were adjusted by mixing the stock solutions at the required ratios calculated using the WEBMAXC program (http://web.stanford.edu/~cpatton/webmaxcS.htm). Patch pipettes were filled with the stock solution with Ca^2+-EGTA, which has a free Ca^2+ concentration of 1 mM. 1PBC (ChemBridge) stock was reconstituted in anhydrous DMSO (Sigma-Aldrich) at 100 mM and stored at −20 °C. Working solutions with 1PBC were prepared by serial dilution. Unless otherwise stated, experiments were performed at a saturating Ca^2+ concentration as shown in Supplementary Table 1 and the primary data were corrected for current rundown as described previously[21],[25].
Concentration-response relations, obtained from the ratio of the I-V plots before and after the application of the blocker, were fitted to the Hill equation,1 I/Imax=1/1+IC50/[blocker]^h where I/Imax is the normalized current responses, IC50 defines the concentration at which inhibition is at its half-maximum, and h is the Hill coefficient.

## N#Cc1c(C(F)(F)F)cc(O)n2c1nc1ccccc12 [1PBC]
140 mV
  remaining activity at 30 µM: 10.1%
  remaining activity at 100 µM: 4.21%
-20 mV
  remaining activity at 30 µM: 17.4%
  remaining activity at 100 µM: 7.53%
-40 mV
  remaining activity at 30 µM: 20.4%
  remaining activity at 100 µM: 8.84%
-60 mV
  remaining activity at 30 µM: 25.6%
  remaining activity at 100 µM: 10.3%
-80 mV
  remaining activity at 30 µM: 29.2%
  remaining activity at 100 µM: 12.6%
-100 mV
  remaining activity at 30 µM: 33.1%
  remaining activity at 100 µM: 14.7%
-120 mV
  remaining activity at 30 µM: 36.2%
  remaining activity at 100 µM: 17.1%
-140 mV
  remaining activity at 30 µM: 39.2%
  remaining activity at 100 µM: 19.8%
0 mV
  remaining activity at 100 µM: 6.16%
20 mV
  remaining activity at 100 µM: 4.78%
40 mV
  remaining activity at 100 µM: 4.43%
60 mV
  remaining activity at 100 µM: 4.02%
80 mV
  remaining activity at 100 µM: 3.86%
  log-fold IC50 (change of mutant vs WT): 0.0426
100 mV
  remaining activity at 100 µM: 3.89%
120 mV
  remaining activity at 100 µM: 3.95%
20 mV, 2 µM Ca2+
  IC50: 3.78 µM
40 mV, 2 µM Ca2+
  IC50: 3.01 µM
60 mV, 2 µM Ca2+
  IC50: 2.51 µM
80 mV, 2 µM Ca2+
  IC50: 2.2 µM
100 mV, 2 µM Ca2+
  IC50: 2.14 µM
120 mV, 2 µM Ca2+
  IC50: 2.29 µM
140 mV, 2 µM Ca2+
  IC50: 2.76 µM
-20 mV, 2 µM Ca2+
  IC50: 6.24 µM
-40 mV, 2 µM Ca2+
  IC50: 8.08 µM
-60 mV, 2 µM Ca2+
  IC50: 10.3 µM
-80 mV, 2 µM Ca2+
  IC50: 12.8 µM
-100 mV, 2 µM Ca2+
  IC50: 15.5 µM
-120 mV, 2 µM Ca2+
  IC50: 18.4 µM
-140 mV, 2 µM Ca2+
  IC50: 21.4 µM
S517A, V 0 mV
  IC50: 4.87 µM
S517A, V 20 mV
  IC50: 3.78 µM
S517A, V 40 mV
  IC50: 3.01 µM
S517A, V 60 mV
  IC50: 2.51 µM
S517A, V 80 mV
  IC50: 2.2 µM
S517A, V 100 mV
  IC50: 2.14 µM
S517A, V 120 mV
  IC50: 2.29 µM
S517A, V 140 mV
  IC50: 2.76 µM
S517A, V -20 mV
  IC50: 6.24 µM
S517A, V -40 mV
  IC50: 8.08 µM
S517A, V -60 mV
  IC50: 10.3 µM
S517A, V -80 mV
  IC50: 12.8 µM
S517A, V -100 mV
  IC50: 15.5 µM
S517A, V -120 mV
  IC50: 18.4 µM
S517A, V -140 mV
  IC50: 21.4 µM
